The record followed here is patent US5747253A, “Combinatorial oligomer immunoabsorbant screening assay for transcription factors and other biomolecule binding” (Isis Pharmaceuticals, Inc., priority 1995, dated 1998).

In general, Kd refers to the free concentration of one partner at which half of the binding sites on the other are occupied at equilibrium, for simple one-to-one binding.

Data set [1] has as its system gag-pol stem loop. Description: Gel shift analysis of RNA oligonucleotide sets binding to HIV gag-pol stem loop (triple strand). As to conditions: 100 mM NaCl, 25 mM TRIS acetate pH5, 2 mM MgCl2, 1 mM spermidine. An excerpt: Binding to double stranded DNA or RNA is possible by formation of a three stranded complex with the incoming third strand binding in the major groove of the duplex RNA or DNA. The molecular nature of the interaction between the oligomer and target need not be known in order to practice the technique. Thus, it is possible that novel interactions between oligomers and DNA or RNA will be responsible for binding. One of the limitations in the design of triple strand interactions is the need to have a long stretch of homopurines as a target. The 3' (right) side of the gag-pol stem loop is homopurine except for a pair of cytosines near the bottom of the stem. To determine the best oligonucleotide to bind to the gag-pol stem loop, a group of RNA oligonucleotide sets was designed to bind to the purine-rich strand of the gag-pol stem-loop by Hoogstein base pairing and prepared in accordance with Examples 2 and 6. Binding to the gag-pol stemloop was measured by gel shift analysis as previously described in Example 8 with the following modifications: the radiolabeled gag-pol RNA was incubated with the oligonucleotide in 100 mM NaCl, 25 mM TRIS acetate pH5, 2 mM Mg Cl2, 1 mM spermidine. The gel was a 15% acrylamide with 50 mM NaCl 2 mM MgCl2 added to the running buffer.

The test system of data set [2] is HIV-tat protein. Description: Competition assay for HIV-tat binding against ΔTAR-B. As to conditions: RNA library pools at 1 μM, 10 μM and 100 μM; ΔTAR-B 100 nM. An excerpt:
A truncated version (residues 16-45; ΔTAR) of the TAR hairpin previously shown to bind tat was synthesized using 2'-O-methyl oligonucleotides as described in Example 4 and was biotin conjugated on the 3' end (ΔTAR-B) as described in Example 9. A combinatorial library was synthesized using RNA oligonucleotides with the sequence CCA NNX NNNNGCCUGGGAGCNNNNUGG, where X=A (SEQ ID NO:24), G (SEQ ID NO:25), C (SEQ ID NO:26), or U (SEQ ID NO:27) as described in Example 2 and 6.
The pools of the library at 0, 1, 10, or 100 μM were incubated with 100 μl of purified recombinant tat transcription factor (Repligen) at a concentration of 20 pg/μl for 15'. This and all other steps were carried out at room temperature. The competitor, ΔTAR-B, was then added at a concentration of 100 nM. Following a 20' incubation, the mixture was bound to streptavidin-coated microtiter plates as in Example 33. After the non-bound molecules were washed away with PBS, 100 μl of 1:500 tat antisera was added to each well for 2 hours. Protein A/G-alkaline phosphatase was bound to the tat antibodies followed by the addition of the PNPP substrate and quantitation of A 405 as detailed in Example 33.
In the competition mode library pools which bind the transcription factor prevent binding to the natural target (in this case the competitor ΔTAR) also present in the assay. […]

In data set [3] the test system is HIV-tat protein. Description: Capture assay for HIV-tat binding. As to conditions: phosphorothioate library pools at 100 nM. The protocol:
As a positive control, the native double stranded NF-kB binding site was incubated at 100 nM with the same amount of extract. Following the incubation each mixture was added to streptavidin coated microtiter plates (Elkay Lab Systems) and incubated 20 minutes. Unbound molecules were washed away with PBS. 10 μl of PBS plus 5% fetal calf serum was added to each well for 20 minutes at room temperature followed by aspiration and addition of 100 μl of 1:500 tat antisera in PBS plus 1% FCS for 2 hours at room temperature. The wells were then washed with PBS and 100 μl of 1:5000 Protein A/G-alkaline phosphatase (Pierce) added in PBS for 2 hours at room temperature. […] Color development was measured 2 hours later by reading absorbance at 405 nm on a Titertek Multiscan ELISA plate reader.
This and all other steps were carried out at room temperature. […] Protein A/G-alkaline phosphatase was bound to the tat antibodies followed by the addition of the PNPP substrate and quantitation of A 405 as detailed in Example 33.
Each pool of the phosphorothioate combinatorial library described in Example 33 was incubated at a concentration of 100 nM with tat protein as described in Example 34. Following incubation of the protein with the library pools, the complexes were captured on streptavidin plates and binding quantitated as in Example 33. […]

Data set [4] relates to c-rel. Description: Capture assay for c-rel binding (streptavidin plates, Jurkat nuclear extract). As to conditions: library pools at 1 μM; native binding site at 100 nM. On the procedure:
Crude nuclear extracts were prepared as detailed by Franza, et al., Nature 1987, 330, 391, from Jurkat cells stimulated 4 hours with 1 μM PHA and 100 nM PMA to induce the expression of rel. The extract was then preabsorbed with 100 μl streptavidin agarose per ml for 10 minutes. This was followed with the addition of poly dI.dC as a non specific competitor at a concentration of 100 μg/ml of extract.
Phosphorothioate oligonucleotides were synthesized with the sequence […]-B (SEQ ID NO: 22) and […]-B (SEQ ID NO:23), where B=biotin, as described in Examples 3 and 9. The complementary oligonucleotides were then hybridized to create the double stranded NF-kB binding site, which was used as a positive control in the assay. A combinatorial phosphorothioate library was also synthesized with the general sequence TNNNXNNNT-B, where X=A, G, C, or U as described in Examples 3 and 6.
Each pool of the library was incubated in triplicate at a concentration of 1 μM with 100 μl of the extract for 20 minutes at room temperature. As a positive control, the native double stranded NF-kB binding site was incubated at 100 nM with the same amount of extract. Following the incubation each mixture was added to streptavidin coated microtiter plates (Elkay Lab Systems) and incubated 20 minutes. […] Color development was measured 2 hours later by reading absorbance at 405 nm on a Titertek Multiscan ELISA plate reader.

Turning to “A2: RNA oligonucleotide (CCCUUCCCAUC; RNA, backbone not given here) [Set A2]”, the Kd in data set [1] came to 10 µM.
The same measure, in the same setting: next, “B2: RNA oligonucleotide (CCCUUCCCGUC; RNA, backbone not given here) [Set B2]”: 10 µM; “D2: RNA oligonucleotide (CCCUUCCCUUC; RNA, backbone not given here) [Set D2]”: 10 µM.
As for “pool fixed at G: RNA library pool CCA NNX NNNNGCCUGGGAGCNNNNUGG, X=G (CCANNGNNNNGCCUGGGAGCNNNNUGG; RNA, backbone and the base at N not given here)”, in data set [2], the “inhibition of tat binding to ΔTAR, in words” value is listed as “least effect”. In addition, the “amount of tat bound, in words” value in data set [3] is listed as “clearly binds more tat than the others”.
For the substance “native NF-kB binding site: double stranded biotinylated phosphorothioate NF-kB binding site, SEQ ID NO: 22 and 23, positive control (chain 1 GGGGACTTTCCGCTGGGACTTTCTAG; chain 2 CTGGAAAGTCCCAGCGGAAGGTCCCC; all phosphorothioate, sugars by position and methylation of C not given here; biotinylated)”, in data set [4], the “amount of c-rel bound, in words” value is “binds the greatest amount of rel”.
“C2: RNA oligonucleotide (CCCUUCCCCUC; RNA, backbone not given here) [Set C2]”: in data set [1], the Kd stood at 1 µM.
